The values that follow come from patent publication US11926574B2, “Dimethoxyphenylalkylamine activators of serotonin receptors” (Entheogenix Biosciences, Inc., priority 2021, dated 2024).

The Emax is the maximal effect, on the per cent scale that the assay sets.

Structures are written as SMILES. Where a name gives a salt, the structure may show the parent alone.

For this assay, the target named is 5HT2A (Homo sapiens, UniProt P28223). Put plainly: 5HT2A Activity (% Max Activation @ 0.3 uM). It is filed as cell-based.
Chain of 5HT2A (P28223 whole entry): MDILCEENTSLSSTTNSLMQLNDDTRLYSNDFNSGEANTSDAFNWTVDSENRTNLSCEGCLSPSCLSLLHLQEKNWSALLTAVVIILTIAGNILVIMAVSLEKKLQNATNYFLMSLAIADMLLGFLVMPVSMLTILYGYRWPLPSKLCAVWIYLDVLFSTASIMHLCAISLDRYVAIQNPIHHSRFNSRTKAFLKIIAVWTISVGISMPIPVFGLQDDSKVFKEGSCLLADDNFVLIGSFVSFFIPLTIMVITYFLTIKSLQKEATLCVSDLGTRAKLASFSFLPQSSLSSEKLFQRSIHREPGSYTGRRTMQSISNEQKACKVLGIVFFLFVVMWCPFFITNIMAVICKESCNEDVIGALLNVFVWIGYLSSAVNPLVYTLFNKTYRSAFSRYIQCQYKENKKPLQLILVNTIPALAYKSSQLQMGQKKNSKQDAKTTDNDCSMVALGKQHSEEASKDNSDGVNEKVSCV
Take `COc1ccc(OC)c2c1CCC(NCc1cc(C)cc(Cl)c1)C2` (centres unmarked) [Compound 1-1, N-(3-chloro-5-methylbenzyl)-5,8-dimethoxy-1,2,3,4-tetrahydronaphthalen-2-amine]: the Emax at 0.3 µM worked out at 67%.

In the case of `COc1cc(I)c(OC)c2c1CC(NCc1cc(C)cc(Cl)c1)CC2` (centres unmarked) [Compound 1-2A, N-(3-chloro-5-methylbenzyl)-6-iodo-5,8-dimethoxy-1,2,3,4-tetrahydronaphthalen-2-amine], the maximal response (Emax) at 0.3 µM turned out to be 73%. `COc1ccc(OC)c2c1CCC(NCc1cc(C)cc(F)c1)C2` (centres unmarked) [Compound 1-3, N-(3-fluoro-5-methylbenzyl)-5,8-dimethoxy-1,2,3,4-tetrahydronaphthalen-2-amine] gave a maximum response (Emax) at 0.3 µM of 76%. Regarding `COc1ccc(OC)c2c1CCC(NCc1cc(C)cc(Br)c1)C2` (centres unmarked) [Compound 1-4, N-(3-bromo-5-methylbenzyl)-5,8-dimethoxy-1,2,3,4-tetrahydronaphthalen-2-amine], the Emax at 0.3 µM was 42%. The result for `COc1ccc(OC)c2c1CCC(NCc1cc(C)cc(I)c1)C2` (centres unmarked) [Compound 1-5, N-(3-iodo-5-methylbenzyl)-5,8-dimethoxy-1,2,3,4-tetrahydronaphthalen-2-amine] reads 12%.

`COc1ccc(OC)c2c1CCC(NCc1cccc(Cl)c1C)C2` (centres unmarked) [Compound 1-9, N-(3-chloro-2-methylbenzyl)-5,8-dimethoxy-1,2,3,4-tetrahydronaphthalen-2-amine] showed an Emax at 0.3 µM of 7%. `COc1ccc(OC)c2c1CCC(NCc1cccc(C)c1Cl)C2` (centres unmarked) [Compound 1-10, N-(2-chloro-3-methylbenzyl)-5,8-dimethoxy-1,2,3,4-tetrahydronaphthalen-2-amine] came in with an Emax at 0.3 µM of 2%. As to `COc1ccc(OC)c2c1CCC(NCc1ccc(Cl)cc1C)C2` (centres unmarked) [Compound 1-11, N-(4-chloro-2-methylbenzyl)-5,8-dimethoxy-1,2,3,4-tetrahydronaphthalen-2-amine], the Emax at 0.3 µM was determined as 1%. For the molecule `COc1ccc(OC)c2c1CCC(NCc1ccc(C)cc1Cl)C2` (centres unmarked) [Compound 1-12, N-(2-chloro-4-methylbenzyl)-5,8-dimethoxy-1,2,3,4-tetrahydronaphthalen-2-amine], the Emax at 0.3 µM worked out at 4%. `COc1ccc(OC)c2c1CCC(NCc1cc(C)ccc1Cl)C2` (centres unmarked) [Compound 1-13, N-(2-chloro-5-methylbenzyl)-5,8-dimethoxy-1,2,3,4-tetrahydronaphthalen-2-Amine] gave an Emax at 0.3 µM of 15%. The result for `COc1ccc(OC)c2c1CCC(NCc1cc(Cl)cc(Cl)c1)C2` (centres unmarked) [Compound 1-15, N-(3,5-dichlorobenzyl)-5,8-dimethoxy-1,2,3,4-tetrahydronaphthalen-2-amine] reads 11%.

Molecule `COc1ccc(OC)c2c1CCC(NCc1cccc(Cl)c1Cl)C2` (centres unmarked) [Compound 1-17, N-(2,3-dichlorobenzyl)-5,8-dimethoxy-1,2,3,4-tetrahydronaphthalen-2-amine] displayed a maximum response (Emax) at 0.3 µM of 1%.

As for `COc1ccc(OC)c2c1CCC(NCc1ccccc1)C2` (centres unmarked) [Compound 1-18, N-benzyl-5,8-dimethoxy-1,2,3,4-tetrahydronaphthalen-2-amine], the Emax at 0.3 µM amounted to 6%. The molecule `COc1cc(C)c(OC)c2c1CC(NCc1cc(C)cc(Cl)c1)CC2` (centres unmarked) [Compound 1-19, N-(3-chloro-5-methylbenzyl)-5,8-dimethoxy-6-methyl-1,2,3,4-tetrahydro-naphthalen-2-amine hydrochloride] showed an Emax at 0.3 µM of 73%. `COc1ccc(OC)c2c1CC(NCc1cc(C)cc(Cl)c1)C2` [Compound 1-20, N-(3-chloro-5-methylbenzyl)-4,7-dimethoxy-2,3-dihydro-1H-inden-2-amine hydrochloride] showed a maximal effect (Emax) at 0.3 µM of 59%. The result for `COc1ccc(OC)c2c1CCC2NCc1cc(C)cc(Cl)c1` (centres unmarked) [Compound 1-21, N-(3-chloro-5-methylbenzyl)-4,7-dimethoxy-2,3-dihydro-1H-1-inden-1-amine] reads 9%; that for `COc1ccc(OC)c(CCNCc2cc(C)cc(F)c2)c1` [Compound 2-2, 2-(2,5-dimethoxyphenyl)-N-(3-fluoro-5-methylbenzyl)ethan-1-amine], 76%; that for `COc1ccc(OC)c(CCNCc2ccc(C)cc2Cl)c1` [Compound 2-3, N-(2-chloro-4-methylbenzyl)-2-(2,5-dimethoxyphenyl)ethan-1-amine], 8%. Regarding `COc1ccc(OC)c(CCNCc2cc(C)ccc2Cl)c1` [Compound 2-4, N-(2-chloro-5-methylbenzyl)-2-(2,5-dimethoxyphenyl)ethan-1-amine], the maximal effect (Emax) at 0.3 µM stood at 67%.

For `COc1ccc(OC)c(CCNCc2cc(Cl)cc(Cl)c2)c1` [Compound 2-6, N-(3,5-dichlorobenzyl)-2-(2,5-dimethoxyphenyl)ethan-1-amine], the maximal effect (Emax) at 0.3 µM was found to be 68%. The result for `COc1ccc(OC)c(CCNCc2cccc(Cl)c2Cl)c1` [Compound 2-8, N-(2,3-dichlorobenzyl)-2-(2,5-dimethoxyphenyl)ethan-1-amine] reads 33%. As for `COc1ccc(OC)c(CCNCc2cc(C)cc([N+](=O)[O-])c2)c1` [Compound 2-9, 2-(2,5-dimethoxyphenyl)-N-(3-methyl-5-nitrobenzyl)ethan-1-amine], the Emax at 0.3 µM was 5%.

For the molecule `COc1ccc(OC)c(CCNCc2cc(C)cc(Br)c2)c1` [Compound 2-10, N-(3-bromo-5-methylbenzyl)-2-(2,5-dimethoxyphenyl)ethan-1-amine], the maximal effect (Emax) at 0.3 µM was found to be 79%. Turning to `COc1ccc(OC)c(CCNCc2cc(C)cc(I)c2)c1` [Compound 2-11, 2-(2,5-dimethoxyphenyl)-N-(3-iodo-5-methylbenzyl)ethan-1-amine], the maximal effect (Emax) at 0.3 µM was found to be 76%. The result for `COc1ccc(OC)c(CCNCc2cc(Cl)ccc2C)c1` [Compound 2-12, N-(5-chloro-2-methylbenzyl)-2-(2,5-dimethoxyphenyl)ethan-1-amine] reads 41%.

As to `COc1ccc(OC)c(CCNCc2ccc(Cl)c(C)c2)c1` [Compound 2-14, N-(4-chloro-3-methylbenzyl)-2-(2,5-dimethoxyphenyl)ethan-1-amine], the Emax at 0.3 µM came out at 1%. The result for `COc1ccc(OC)c(CCNCc2cccc(Cl)c2C)c1` [Compound 2-15] reads 20%; that for `COc1ccc(OC)c(CCNCc2cccc(C)c2Cl)c1` [Compound 2-16, N-(2-chloro-3-methylbenzyl)-2-(2,5-dimethoxyphenyl)ethan-1-amine], 64%; that for `COc1cc(CCNCc2cc(C)cc(Cl)c2)c(OC)cc1C` [Compound 2-18, N-(3-chloro-5-methylbenzyl)-2-(2,5-dimethoxy-4-methylphenyl)ethan-1-amine], 94%. The molecule `CCc1cc(OC)c(CCNCc2cc(C)cc(Cl)c2)cc1OC` [Compound 2-19, N-(3-chloro-5-methylbenzyl)-2-(4-ethyl-2,5-dimethoxyphenyl)ethan-1-amine] yielded a maximal response (Emax) at 0.3 µM of 84%. With `COc1cc(CCNCc2cc(C)cc(Cl)c2)c(OC)cc1F` [Compound 2-20, N-(3-chloro-5-methylbenzyl)-2-(4-fluoro-2,5-dimethoxyphenyl)ethan-1-amine] the figure was 89%; with `COc1cc(CCNCc2cc(C)cc(Cl)c2)c(OC)cc1Cl` [Compound 2-21, 2-(4-chloro-2,5-dimethoxyphenyl)-N-(3-chloro-5-methylbenzyl)ethan-1-amine], 92%. The molecule `COc1cc(CCNCc2cc(C)cc(Cl)c2)c(OC)cc1Br` [Compound 2-22, 2-(4-bromo-2,5-dimethoxyphenyl)-N-(3-chloro-5-methylbenzyl)ethan-1-amine] yielded a maximal effect (Emax) at 0.3 µM of 85%. The result for `COc1cc(CCNCc2cc(C)cc(Cl)c2)c(OC)cc1C#N` [Compound 2-23, 4-(2-((3-chloro-5-methylbenzyl)amino)ethyl)-2,5-dimethoxybenzonitrile] reads 96%; that for `COc1cc(SC)c(OC)cc1CCNCc1cc(C)cc(Cl)c1` [Compound 2-24, N-(3-chloro-5-methylbenzyl)-2-(2,5-dimethoxy-4-(methylthio)phenyl)ethan-1-amine], 91%. `COc1cc([S+](C)[O-])c(OC)cc1CCNCc1cc(C)cc(Cl)c1` (centres unmarked) [Compound 2-25, N-(3-chloro-5-methylbenzyl)-2-(2,5-dimethoxy-4-(methylsulfinyl)phenyl)-ethan-1-amine] showed a maximum response (Emax) at 0.3 µM of 95%. With `COc1cc(S(C)(=O)=O)c(OC)cc1CCNCc1cc(C)cc(Cl)c1` [Compound 2-26, (3-chloro-5-methylbenzyl)-2-(2,5-dimethoxy-4-(methylsulfonyl)phenyl)ethan-1-amine] the figure was 95%; with `COc1ccc(OC)c(CC(CO)NCc2cc(C)cc(Cl)c2)c1` (centres unmarked) [Compound 2-29, 2-((3-chloro-5-methylbenzyl)amino)-3-(2,5-dimethoxyphenyl)propan-1-ol], 27%. As for `COc1ccc(OC)c(C(O)CNCc2cc(C)cc(Cl)c2)c1` (centres unmarked) [Compound 2-30, 2-((3-chloro-5-methylbenzyl)amino)-1-(2,5-dimethoxyphenyl)ethan-1-ol], the Emax at 0.3 µM turned out to be 80%.

`COc1cc(N2CCOCC2)c(OC)cc1CCNCc1cc(C)cc(Cl)c1` [Compound 2-31, N-(3-chloro-5-methylbenzyl)-2-(2,5-dimethoxy-4-morpholinophenyl)ethan-1-amine] showed an Emax at 0.3 µM of 41%.

Molecule `COc1ccc(OC)c([C@@H](O)CNCc2cc(C)cc(Cl)c2)c1` [Compound 2-32, (R)-2-((3-chloro-5-methylbenzyl)amino)-1-(2,5-dimethoxyphenyl)ethan-1-ol] came in with a maximum response (Emax) at 0.3 µM of 83%. `COc1ccc(OC)c([C@H](O)CNCc2cc(C)cc(Cl)c2)c1` [Compound 2-33, (S)-2-((3-chloro-5-methylbenzyl)amino)-1-(2,5-dimethoxyphenyl)ethan-1-ol] showed an Emax at 0.3 µM of 39%. `COc1cc([S@](C)(=N)=O)c(OC)cc1CCNCc1cc(C)cc(Cl)c1` [Compound 2-34, (R)-(4-(2-((3-chloro-5-methylbenzyl)amino)ethyl)-2,5-dimethoxyphenyl)(imino)(methyl)-16-sulfanone] had a maximum response (Emax) at 0.3 µM of 56%.

Take `COc1cc([S@@](C)(=N)=O)c(OC)cc1CCNCc1cc(C)cc(Cl)c1` [Compound 2-35, (S)-(4-(2-((3-chloro-5-methylbenzyl)amino)ethyl)-2,5-dimethoxyphenyl)(imino)(methyl)-16-sulfanone]: the maximum response (Emax) at 0.3 µM came to 50%.
